Assay results from ChEMBL document CHEMBL3507680, “University of Dundee, Gates Library screen for HepG2 cell viability”.

Experiment: Human HepG2 cell viability assay in 384 well format
Format: toxicity, cell-based
Parameters: dose 125 nL, time 70.5 hour; cytotoxicity at 70.5 h: concentration not given beside the values
Conditions: HepG2 cells, read-out: Inhibition

Row | SMILES | cytotoxicity at 70.5 h [%]
1 | CN([C@@H]1CC[C@@H](N2CCOCC2)[C@@H]1O)S(=O)(=O)c1ccccc1 | -10.3
2 | COc1cc(C(=O)N2CCCC(c3cc(C)[nH]n3)C2)cc(OC)c1C (stereo not drawn) | 29
3 | O=C(CCOc1ccccc1F)N1CCC(O)CC1 | -9.54
4 | CCn1c(C2CCNCC2)nn(CCCc2ccccc2)c1=O | -5.09
5 | COCCCN1CC2(CCN(Cc3ncc[nH]3)CC2)CC1=O | -4.09
6 | CC(=O)N1CCCC(c2cnc(-c3c(C)nn(C)c3C)cn2)C1 (stereo not drawn) | -20.6
7 | CCOCC1CN(C(=O)c2cscn2)Cc2cn(C)nc21 (stereo not drawn) | -4.69
8 | Cc1nnc2n1CCN(C(=O)c1ccnc(N(C)C)c1)C2 | 6.98
9 | NC(=O)C1(c2cnccn2)CCCN1Cc1cccc(Cl)c1 (stereo not drawn) | -2.75
10 | CC(CO)(NC(=O)NCc1ccc(Br)s1)C1CC1 (stereo not drawn) | -8.92
11 | O=C(CCc1ccco1)NS(=O)(=O)Cc1ccon1 | -3.83
12 | CCN(C1CCS(=O)(=O)C1)S(=O)(=O)c1cccc2cc(C)cnc12 (stereo not drawn) | 2.06
13 | COc1ncccc1NC(=O)N(C1CC1)C(C)C(C)C (stereo not drawn) | -13.6
14 | CCCN(CCN(C)C)C(=O)Cc1cn2ccsc2n1 | 5.05
15 | Cn1cccc1C(=O)N1CCC2(CCCN(CC3CC3)C2=O)C1 (stereo not drawn) | -4.86
16 | O=C(Cn1ccc(=O)[nH]c1=O)NCC1Cc2ccccc2O1 (stereo not drawn) | -11.6
17 | Cc1cc(C)c(CNC(=O)NCc2ccc(F)c(C)c2)c(=O)[nH]1 | -0.902
18 | COc1cccc(CNC(=O)c2ccccc2-n2cc(CN)cn2)c1 | -2.7
19 | CCc1nnc2n1CCN(C(=O)CCOc1ccc(C)cc1C)C2 | -4.53
20 | COC(=O)N1CCC(Oc2ccc(C(=O)NCCN(C)C)cc2Cl)CC1 | -8.08
21 | CCC[C@@H]1CN(Cc2c[nH]nc2-c2ccc(OC)cc2)C[C@H]1NC(C)=O | -7.5

Row | SMILES | cytotoxicity at 70.5 h [%]
22 | Cc1nc(Oc2ccccc2F)sc1C(=O)O | -11.4
23 | COc1cccc(NC(=O)NCC(Cc2cnn(C)c2)C(N)=O)c1 (stereo not drawn) | -7.2
24 | CC(Nc1ncnc2sccc12)c1cnn(C)c1 (stereo not drawn) | -12.3
25 | CN(Cc1cnccn1)S(=O)(=O)N1CCCC1c1ccco1 (stereo not drawn) | 1.01
26 | Cc1noc(C)c1CN(C)C(=O)C1CCCN1S(N)(=O)=O (stereo not drawn) | 17.7
27 | COc1cc(NCc2ccc(Cl)cc2)c(-c2nn[nH]n2)cc1OC | -0.792
28 | COCCN(Cc1cccs1)C(=O)c1ccc(=O)n(C)c1 | -10.2
29 | CC(=O)Nc1nc(C(=O)NC(C)c2ccc(F)cc2)cs1 (stereo not drawn) | -13.6
30 | CC(C)(C)NC(=O)C1CSCN1S(=O)(=O)c1ccccc1F (stereo not drawn) | -4.62
31 | COCCN(C)C(=O)Nc1cc2c(cc1SC)OCCO2 | 10.9
32 | CN(C)c1cc2c(nn1)CCN(C(=O)c1cc3c(s1)CCCC3)C2 | 13.1
33 | NC(=O)C1(c2cnccn2)CCCN1Cc1ccc(F)c(F)c1 (stereo not drawn) | 7.58
34 | Cc1cncc(C(=O)N2CCCC(O)(CO)C2)c1 (stereo not drawn) | -7.18
35 | CCN1CCC(CNCc2c[nH]nc2C(C)(C)C)C1 (stereo not drawn) | -2.99
36 | CCC(C(=O)N(C)CCC1=CCN(C)CC1)c1ccccc1 (stereo not drawn) | 57.9
37 | COc1ccc(CNCC(C)Oc2ccccn2)cc1 (stereo not drawn) | -18.6
38 | O=C(c1cccn1Cc1cccs1)N1CCSCC1 | 25
39 | Nc1ncc(CN2CCC(CCC(=O)NC3CC3)CC2)cn1 | 0.29
40 | CCc1nc(CNc2nc3c(s2)c(C)nn3C)cs1 | -3.7
41 | COC[C@@]12CC[C@@H](N3CCOCC3)C[C@H]1CCN(c1ncccn1)C2 | -10.2
42 | COc1ccnc(N(C)Cc2ccco2)n1 | 10.4

Row | SMILES | cytotoxicity at 70.5 h [%]
43 | COc1c(C)cnc(CNCC(C)C)c1C | -4.09
44 | CC(C)c1nn(CC(=O)N2CCCCC2)c(=O)c2c1cnn2C(C)(C)C | -10.1
45 | O=C(CO)N1C[C@H]2CC[C@@H]1CN(C1Cc3ccccc3C1)C2 | -8.88
46 | COCCCSc1ccc(NCc2cscn2)cc1 | -2.43
47 | COCC1N(C(=O)Nc2ccccc2)[C@H]2CC[C@]1(O)CC2 (stereo partly drawn) | -7.67
48 | COCCNC(=O)Nc1cccc(COCCOC(C)C)c1 | -6.5
49 | CCOc1ccnc(N2CCN(C(=O)c3ccoc3)CC2)n1 | 18.6
50 | O=C(NCC(F)F)c1cnc(C2CCCN2)cn1 (stereo not drawn) | -3.12
51 | CN1CCN([C@H]2CCN(C(=O)c3cc(Cl)cn3C)C[C@H]2CCCO)CC1 | -14.3
52 | CN(C)CCN1C(=O)CCCC12CCCN(C(=O)c1cc[nH]n1)C2 (stereo not drawn) | -4.9
53 | Cn1cccc1C(=O)N1CC[C@H]2[C@@H]1CCC(=O)N2c1ccccc1 | 11.6
54 | COc1cccc(C(O)CN2CCN(c3cccc(C)c3)CC2)c1 (stereo not drawn) | 0.851
55 | CC(C)c1cc(NC(=O)CN2CCCC2Cn2cncn2)on1 (stereo not drawn) | -9.97
56 | Cc1ccc(C(=O)N(C2CC2)C2CC(=O)NC2=O)cc1F (stereo not drawn) | -3.53
57 | COc1ccc(CCn2cnc(C#N)n2)cc1 | -12.6
58 | c1ccc(C(NCc2nnc(-c3ccco3)o2)C2CCC2)cc1 (stereo not drawn) | -14.7
59 | Cn1ccnc1CN1CCN(Cc2noc(C3CC3)n2)CC1 | -12.6
60 | COc1ccccc1OCc1cc(C(=O)N2CCC(C(C)O)CC2)n[nH]1 (stereo not drawn) | -5.66
61 | Cc1nc(Nc2ncccn2)cc(C2CCCN2C2CCOCC2)n1 (stereo not drawn) | 1.98
62 | COc1cccc(-c2nc(C)c(C(=O)NC(CO)CCSC)s2)c1 (stereo not drawn) | -25
63 | Cc1ccc(CNc2cc3[nH]c(O)nc3cc2C)cc1 | -19.5

Row | SMILES | cytotoxicity at 70.5 h [%]
64 | CCC(=O)N1CCC2(CC1)CC(NC(=O)N(C)C)c1cc(C)ccc12 (stereo not drawn) | -5.76
65 | Cc1ccc(C(=O)O)cc1-c1cccc(C(C)N(C)C)c1 (stereo not drawn) | -2.39
66 | CC(=O)c1csc(-c2csc(Cn3ccc(=O)[nH]c3=O)n2)c1 | 4.03
67 | Cc1ccc(C)c(OCCNC(=O)[C@@H]2CCCCN2)c1 | -5.85
68 | CCc1nc2n(n1)CC(NCC(=O)Nc1cc(C)nn1C)CC2 (stereo not drawn) | -6.14
69 | CC1(COc2ccccc2)NCCc2[nH]cnc21 (stereo not drawn) | -2.27
70 | O=C(O)Cn1ccc(=O)c2cc(F)ccc21 | -10.1
71 | Cn1cccc1CNC(=O)CCCc1nnc2ccccn12 | -3.22
72 | c1cnc(-c2nn3c(CN4CCOCC4)nnc3s2)cn1 | -10.2
73 | COCc1cc(N(C)CCc2c(C)n[nH]c2C)ncn1 | 5.69
74 | CC(c1ccco1)N(C(=O)Cn1nc2n(c1=O)CCCCC2)C1CC1 (stereo not drawn) | 18
75 | CC(C(=O)Nc1ccon1)n1ccc(C(F)(F)F)n1 (stereo not drawn) | 15.3
76 | CC(NC(=O)C(C)(C)C#N)c1ccc(OCC2CC2)c(F)c1 (stereo not drawn) | -6.52
77 | Cc1nc(CN(C)CC2CCCN2c2cccnn2)nc2ccccc12 (stereo not drawn) | -5.19
78 | CN(C1CCCCC1)S(=O)(=O)NCC1Cc2ccccc2O1 (stereo not drawn) | -1.4
79 | c1cc(CN2CC[C@@H]3CN(c4cnccn4)C[C@@H]3C2)ccn1 | -3.4
80 | Cn1cnc2c1CCN(Cc1nc(-c3ccco3)no1)C2 | 8.47
81 | O=S1(=O)C[C@@H]2[C@H](C1)N(Cc1ncc[nH]1)CCN2CCCc1ccccc1 | -1.68
82 | CCOCC(=O)N1CC[C@H]2[C@@H]1CCC(=O)N2Cc1csc(C)n1 | -10.5
83 | Cc1nc(C2CCCN(c3ncc(Br)cn3)C2)no1 (stereo not drawn) | -13.9
